Details: Liquid, Closed cell (Static) method

Cc1cccc(C)c1 [1,3-dimethylbenzene]
Details	vapor or sublimation pressure [kPa]
308.15 K	2.631
313.15 K	3.524
318.15 K	4.372
323.15 K	5.37
328.15 K	6.496
333.15 K	7.75
338.15 K	9.305
343.15 K	11.12
353.15 K	15.97
363.15 K	22.76
373.15 K	32.06
383.15 K	44.23
403.15 K	80.2

Cc1ccccc1 [toluene]
Details	vapor or sublimation pressure [kPa]
303.15 K	4.905
308.15 K	6.257
313.15 K	7.963
318.15 K	9.959
323.15 K	12.31
328.15 K	15.14
333.15 K	18.86
338.15 K	22.61
343.15 K	27.31
348.15 K	32.72
358.15 K	46.17
368.15 K	63.84
378.15 K	86.25

Cc1ccc(C)cc1 [1,4-dimethylbenzene]
Details	vapor or sublimation pressure [kPa]
303.15 K	1.562
313.15 K	2.49
323.15 K	4.422
333.15 K	6.997
343.15 K	10.63
353.15 K	15.72
358.15 K	19.04
363.15 K	22.8
373.15 K	32.04
383.15 K	44.56
393.15 K	60.79
403.15 K	80.87
408.15 K	92.43

c1ccccc1 [benzene]
Details	vapor or sublimation pressure [kPa]
293.15 K	9.983
298.15 K	12.64
303.15 K	15.85
308.15 K	19.71
313.15 K	24.3
318.15 K	29.73
323.15 K	36.09
328.15 K	43.51
333.15 K	52.11
338.15 K	62.01
343.15 K	73.35
348.15 K	86.27
353.15 K	100.91

Cc1ccccc1C [1,2-dimethylbenzene]
Details	vapor or sublimation pressure [kPa]
313.15 K	2.052
323.15 K	3.456
333.15 K	5.613
343.15 K	8.542
353.15 K	12.73
363.15 K	18.65
373.15 K	26.73
378.15 K	31.66
383.15 K	37.35
388.15 K	43.63
393.15 K	51.01
403.15 K	68.42
413.15 K	90.18

CCc1ccccc1 [ethylbenzene]
Details	vapor or sublimation pressure [kPa]
308.15 K	2.223
318.15 K	3.746
323.15 K	4.712
328.15 K	5.967
333.15 K	7.448
338.15 K	9.251
343.15 K	11.41
348.15 K	13.79
358.15 K	20.42
368.15 K	29.11
383.15 K	47.75
403.15 K	85.64

— the NIST ThermoML archive (doi:10.1016/j.fluid.2014.03.003)
